{"source": "ChEMBL document CHEMBL5154899", "about": "“Spiropyrimidinetrione DNA Gyrase Inhibitors with Potent and Selective Antituberculosis Activity” (J Med Chem, 2022)", "key": {"[1]": {"test_system": "Mycobacterium tuberculosis", "experiment": "microbe, parasite or virus in culture", "conditions": "H37Rv, 192 h", "description": "Antibacterial activity against Mycobacterium tuberculosis H37Rv assessed as inhibition of bacterial growth measured after 8 days by Alamar blue reagent based broth microdilution method"}, "Escherichia coli": {"test_system": "Escherichia coli", "experiment": "microbe, parasite or virus in culture", "conditions": "ATTC 25922, 192 h"}, "Staphylococcus aureus": {"test_system": "Staphylococcus aureus", "experiment": "microbe, parasite or virus in culture", "conditions": "ATTC 25923, 192 h"}, "[2]": {"target": "DNA gyrase subunit A/DNA gyrase subunit B (Mycobacterium tuberculosis (strain ATCC 25618 / H37Rv), UniProt P9WG45+P9WG47)", "sequence (P9WG45 whole entry)": "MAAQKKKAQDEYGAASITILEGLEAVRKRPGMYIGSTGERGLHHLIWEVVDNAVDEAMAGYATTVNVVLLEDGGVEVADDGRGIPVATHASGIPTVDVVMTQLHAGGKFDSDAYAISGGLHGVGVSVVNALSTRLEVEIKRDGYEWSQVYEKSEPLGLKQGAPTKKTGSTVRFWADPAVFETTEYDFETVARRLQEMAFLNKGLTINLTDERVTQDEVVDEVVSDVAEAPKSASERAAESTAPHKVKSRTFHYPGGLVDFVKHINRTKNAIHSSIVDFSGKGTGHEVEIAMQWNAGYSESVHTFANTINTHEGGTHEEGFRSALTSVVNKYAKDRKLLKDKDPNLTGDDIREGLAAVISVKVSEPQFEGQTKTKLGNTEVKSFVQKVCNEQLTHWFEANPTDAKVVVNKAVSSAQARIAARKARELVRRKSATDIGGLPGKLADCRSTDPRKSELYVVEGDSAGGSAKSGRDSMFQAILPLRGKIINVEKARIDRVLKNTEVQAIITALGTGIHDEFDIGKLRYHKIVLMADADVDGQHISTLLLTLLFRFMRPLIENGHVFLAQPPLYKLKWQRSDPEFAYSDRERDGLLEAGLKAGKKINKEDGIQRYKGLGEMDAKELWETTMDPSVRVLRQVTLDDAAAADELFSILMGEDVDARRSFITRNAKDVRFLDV", "sequence (P9WG47 whole entry)": "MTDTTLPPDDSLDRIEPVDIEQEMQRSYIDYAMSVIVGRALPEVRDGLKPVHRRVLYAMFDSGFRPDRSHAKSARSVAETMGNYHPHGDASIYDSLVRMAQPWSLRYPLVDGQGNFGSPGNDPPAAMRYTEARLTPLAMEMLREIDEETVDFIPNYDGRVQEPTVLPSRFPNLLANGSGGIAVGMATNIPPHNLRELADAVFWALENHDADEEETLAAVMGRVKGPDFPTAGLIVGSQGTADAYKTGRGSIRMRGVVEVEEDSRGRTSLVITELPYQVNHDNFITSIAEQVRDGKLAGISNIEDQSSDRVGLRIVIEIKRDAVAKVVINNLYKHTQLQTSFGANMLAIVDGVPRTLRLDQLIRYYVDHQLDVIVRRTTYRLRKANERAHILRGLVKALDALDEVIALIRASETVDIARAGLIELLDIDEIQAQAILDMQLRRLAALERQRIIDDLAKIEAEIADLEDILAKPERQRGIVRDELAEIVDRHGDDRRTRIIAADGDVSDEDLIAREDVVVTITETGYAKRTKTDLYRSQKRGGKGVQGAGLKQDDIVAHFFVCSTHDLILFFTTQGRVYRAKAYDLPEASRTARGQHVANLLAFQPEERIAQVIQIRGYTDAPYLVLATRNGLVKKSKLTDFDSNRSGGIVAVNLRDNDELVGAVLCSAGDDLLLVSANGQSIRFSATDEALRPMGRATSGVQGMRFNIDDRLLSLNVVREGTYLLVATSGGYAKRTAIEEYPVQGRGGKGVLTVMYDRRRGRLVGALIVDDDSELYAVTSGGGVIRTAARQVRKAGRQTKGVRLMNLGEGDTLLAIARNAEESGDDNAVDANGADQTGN", "experiment": "Inhibition of Mycobacterium tuberculosis H37Rv DNA gyrase"}, "[3]": {"test_system": "Mycobacterium tuberculosis", "experiment": "microbe, parasite or virus in culture", "conditions": "H37Rv, 264 h", "description": "Antibacterial activity against Mycobacterium tuberculosis H37Rv gyrA -FDASTetON-1 hypomorph assessed as inhibition of bacterial growth incubated for 11 days"}, "[4]": {"test_system": "Mycobacterium tuberculosis", "experiment": "microbe, parasite or virus in culture", "conditions": "H37Rv, 264 h", "remark": "listed apart in the source", "description": "Antibacterial activity against wild type Mycobacterium tuberculosis H37Rv assessed as inhibition of bacterial growth incubated for 11 days"}, "DNA gyrase": {"target": "DNA gyrase (Staphylococcus aureus, UniProt P0A0K8+P20831)", "sequence (P0A0K8 whole entry)": "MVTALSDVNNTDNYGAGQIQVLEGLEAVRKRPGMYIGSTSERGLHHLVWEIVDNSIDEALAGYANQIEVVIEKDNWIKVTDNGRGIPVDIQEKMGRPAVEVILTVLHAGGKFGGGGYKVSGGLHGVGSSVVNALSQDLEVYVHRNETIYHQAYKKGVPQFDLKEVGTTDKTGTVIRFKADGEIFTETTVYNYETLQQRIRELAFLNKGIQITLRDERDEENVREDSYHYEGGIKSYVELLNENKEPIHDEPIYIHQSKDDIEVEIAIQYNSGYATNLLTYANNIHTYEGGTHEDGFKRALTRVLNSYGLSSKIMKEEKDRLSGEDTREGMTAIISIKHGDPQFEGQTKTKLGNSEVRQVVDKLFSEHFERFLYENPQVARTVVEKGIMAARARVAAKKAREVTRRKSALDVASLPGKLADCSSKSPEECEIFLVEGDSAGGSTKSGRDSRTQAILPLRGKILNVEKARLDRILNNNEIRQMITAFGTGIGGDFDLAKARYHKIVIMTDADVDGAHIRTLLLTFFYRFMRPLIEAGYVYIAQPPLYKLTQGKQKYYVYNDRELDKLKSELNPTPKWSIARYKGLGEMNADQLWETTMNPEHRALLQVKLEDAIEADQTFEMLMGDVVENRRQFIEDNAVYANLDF", "sequence (P20831 whole entry)": "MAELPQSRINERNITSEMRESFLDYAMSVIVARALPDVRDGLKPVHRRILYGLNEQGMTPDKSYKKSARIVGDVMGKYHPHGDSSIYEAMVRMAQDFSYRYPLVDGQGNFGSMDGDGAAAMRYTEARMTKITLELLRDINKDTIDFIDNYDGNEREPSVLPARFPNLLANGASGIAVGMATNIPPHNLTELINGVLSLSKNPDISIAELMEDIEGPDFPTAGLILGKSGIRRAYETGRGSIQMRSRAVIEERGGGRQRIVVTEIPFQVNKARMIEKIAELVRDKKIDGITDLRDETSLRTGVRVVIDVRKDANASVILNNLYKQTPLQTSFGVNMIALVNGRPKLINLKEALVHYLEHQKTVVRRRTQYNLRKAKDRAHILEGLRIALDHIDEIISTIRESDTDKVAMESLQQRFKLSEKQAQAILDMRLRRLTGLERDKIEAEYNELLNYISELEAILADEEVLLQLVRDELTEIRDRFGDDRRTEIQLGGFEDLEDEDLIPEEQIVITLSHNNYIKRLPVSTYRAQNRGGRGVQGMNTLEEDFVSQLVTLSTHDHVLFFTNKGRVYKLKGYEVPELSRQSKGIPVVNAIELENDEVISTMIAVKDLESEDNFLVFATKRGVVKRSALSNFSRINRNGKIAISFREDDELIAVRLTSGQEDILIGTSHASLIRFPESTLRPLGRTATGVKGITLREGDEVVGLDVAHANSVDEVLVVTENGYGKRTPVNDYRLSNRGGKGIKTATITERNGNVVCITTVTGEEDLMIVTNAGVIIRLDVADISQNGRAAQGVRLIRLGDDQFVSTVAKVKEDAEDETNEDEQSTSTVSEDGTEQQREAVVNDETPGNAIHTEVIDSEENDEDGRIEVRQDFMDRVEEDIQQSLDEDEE"}}, "note": "pIC50: −log10 of the molar value.", "data": [{"smiles": "C[C@@H]1CN2c3c(cc4c(N5CC[C@H](F)C5)noc4c3F)CC3(C(=O)NC(=O)NC3=O)[C@H]2[C@H](C)O1", "values": [{"measurement": "MIC", "setting": "[1]", "value": 4, "unit": "µM"}, {"measurement": "MIC", "setting": "Escherichia coli", "value": 31, "unit": "µM"}, {"measurement": "MIC", "setting": "Staphylococcus aureus", "value": 2, "unit": "µM"}]}, {"smiles": "CN[C@H]1CCN(c2noc3c(F)c4c(cc23)CC2(C(=O)NC(=O)NC2=O)[C@H]2[C@H](C)O[C@H](C)CN42)C1", "values": [{"measurement": "MIC", "setting": "[1]", "value": 63, "unit": "µM"}, {"measurement": "MIC", "setting": "Escherichia coli", "value": 125, "unit": "µM"}, {"measurement": "MIC", "setting": "Staphylococcus aureus", "value": 125, "unit": "µM"}]}, {"smiles": "C[C@@H]1CN2c3c(cc4c(N5CC[C@@H](O)C5)noc4c3F)CC3(C(=O)NC(=O)NC3=O)[C@H]2[C@H](C)O1", "values": [{"measurement": "MIC", "setting": "[1]", "value": 3.9, "unit": "µM"}]}, {"smiles": "C[C@@H]1CN2c3c(cc4c(-n5cncn5)noc4c3F)CC3(C(=O)NC(=O)NC3=O)[C@H]2[C@H](C)O1", "values": [{"measurement": "MIC", "setting": "[1]", "value": 0.24, "unit": "µM"}, {"measurement": "pIC50", "setting": "[2]", "value": 4.74}, {"measurement": "MIC", "setting": "Escherichia coli", "value": 2, "unit": "µM"}, {"measurement": "MIC50", "setting": "[3]", "value": 0.26, "unit": "µM"}, {"measurement": "MIC99", "setting": "[3]", "value": 0.65, "unit": "µM"}, {"measurement": "MIC50", "setting": "[4]", "value": 1.8, "unit": "µM"}, {"measurement": "MIC99", "setting": "[4]", "value": 3.8, "unit": "µM"}, {"measurement": "pIC50", "setting": "DNA gyrase", "value": 5.77}]}, {"smiles": "C[C@@H]1CN2c3c(cc4c(N5CC[C@H](C(=O)O)C5)noc4c3F)CC3(C(=O)NC(=O)NC3=O)[C@H]2[C@H](C)O1", "values": [{"measurement": "MIC", "setting": "[1]", "value": "> 125", "unit": "µM"}, {"measurement": "MIC", "setting": "Escherichia coli", "value": "> 125", "unit": "µM"}, {"measurement": "MIC", "setting": "Staphylococcus aureus", "value": "> 125", "unit": "µM"}]}, {"smiles": "C[C@@H]1CN2c3c(cc4c(N5C(=O)OC[C@@H]5C)noc4c3F)CC3(C(=O)NC(=O)NC3=O)[C@H]2[C@H](C)N1C#N", "values": [{"measurement": "MIC", "setting": "[1]", "value": 3.9, "unit": "µM"}, {"measurement": "MIC", "setting": "Escherichia coli", "value": 3.9, "unit": "µM"}, {"measurement": "MIC", "setting": "Staphylococcus aureus", "value": 1, "unit": "µM"}]}, {"smiles": "C[C@@H]1CN2c3c(cc4c(OC[C@H]5CNC(=O)C5)noc4c3F)CC3(C(=O)NC(=O)NC3=O)[C@H]2[C@H](C)O1", "values": [{"measurement": "MIC", "setting": "Escherichia coli", "value": 63, "unit": "µM"}, {"measurement": "MIC", "setting": "Staphylococcus aureus", "value": 31, "unit": "µM"}]}, {"smiles": "C[C@@H]1CN2c3c(cc4c(N5CC[C@@](C)(O)C5)noc4c3F)CC3(C(=O)NC(=O)NC3=O)[C@H]2[C@H](C)O1", "values": [{"measurement": "MIC", "setting": "[1]", "value": "> 250", "unit": "µM"}, {"measurement": "MIC", "setting": "Escherichia coli", "value": "> 250", "unit": "µM"}, {"measurement": "MIC", "setting": "Staphylococcus aureus", "value": "> 250", "unit": "µM"}]}, {"smiles": "C[C@@H]1CN2c3c(cc4c(N5C[C@@H](O)[C@H](O)C5)noc4c3F)CC3(C(=O)NC(=O)NC3=O)[C@H]2[C@H](C)O1", "values": [{"measurement": "MIC", "setting": "[1]", "value": 5.9, "unit": "µM"}, {"measurement": "pIC50", "setting": "[2]", "value": 4.80}, {"measurement": "MIC", "setting": "Staphylococcus aureus", "value": "> 125", "unit": "µM"}, {"measurement": "MIC50", "setting": "[3]", "value": 1.24, "unit": "µM"}, {"measurement": "MIC99", "setting": "[3]", "value": 3.2, "unit": "µM"}, {"measurement": "MIC50", "setting": "[4]", "value": 3.65, "unit": "µM"}, {"measurement": "MIC99", "setting": "[4]", "value": 6.75, "unit": "µM"}, {"measurement": "pIC50", "setting": "DNA gyrase", "value": 5.18}]}, {"smiles": "C[C@H]1C[C@@H](C)[C@H]2N(C1)c1c(cc3c(OC[C@@H]4CCC(=O)N4)noc3c1F)CC21C(=O)NC(=O)NC1=O", "values": [{"measurement": "MIC", "setting": "[1]", "value": 16, "unit": "µM"}, {"measurement": "MIC", "setting": "Escherichia coli", "value": 63, "unit": "µM"}, {"measurement": "MIC", "setting": "Staphylococcus aureus", "value": 7.8, "unit": "µM"}]}, {"smiles": "Cc1nnc(-c2noc3c(F)c4c(cc23)CC2(C(=O)NC(=O)NC2=O)[C@H]2[C@H](C)N(C#N)[C@H](C)CN42)o1", "values": [{"measurement": "MIC", "setting": "[1]", "value": 1.5, "unit": "µM"}, {"measurement": "MIC", "setting": "Escherichia coli", "value": "> 125", "unit": "µM"}, {"measurement": "MIC", "setting": "Staphylococcus aureus", "value": "> 125", "unit": "µM"}]}, {"smiles": "C[C@@H]1CN2c3c(cc4c(N5CC[C@H](CO)C5)noc4c3F)CC3(C(=O)NC(=O)NC3=O)[C@H]2[C@H](C)O1", "values": [{"measurement": "MIC", "setting": "[1]", "value": 16, "unit": "µM"}, {"measurement": "pIC50", "setting": "[2]", "value": 4.74}, {"measurement": "MIC", "setting": "Escherichia coli", "value": "> 125", "unit": "µM"}, {"measurement": "MIC", "setting": "Staphylococcus aureus", "value": "> 125", "unit": "µM"}]}, {"smiles": "C[C@@H]1CN2c3c(cc4c(OC[C@@H]5CNC(=O)C5)noc4c3F)CC3(C(=O)NC(=O)NC3=O)[C@H]2[C@H](C)O1", "values": [{"measurement": "MIC", "setting": "[1]", "value": 2, "unit": "µM"}, {"measurement": "MIC", "setting": "Escherichia coli", "value": "> 250", "unit": "µM"}, {"measurement": "MIC", "setting": "Staphylococcus aureus", "value": "> 125", "unit": "µM"}]}, {"smiles": "C[C@@H]1CN2c3c(cc4c(N5CC[C@H](C#N)C5)noc4c3F)CC3(C(=O)NC(=O)NC3=O)[C@H]2[C@H](C)O1", "values": [{"measurement": "MIC", "setting": "[1]", "value": 4, "unit": "µM"}, {"measurement": "pIC50", "setting": "[2]", "value": 5.00}, {"measurement": "MIC", "setting": "Escherichia coli", "value": 31, "unit": "µM"}, {"measurement": "MIC", "setting": "Staphylococcus aureus", "value": "> 125", "unit": "µM"}]}, {"smiles": "CO[C@H]1CCN(c2noc3c(F)c4c(cc23)CC2(C(=O)NC(=O)NC2=O)[C@H]2[C@H](C)O[C@H](C)CN42)C1", "values": [{"measurement": "MIC", "setting": "[1]", "value": 31, "unit": "µM"}, {"measurement": "pIC50", "setting": "[2]", "value": 4.11}, {"measurement": "MIC", "setting": "Escherichia coli", "value": "> 125", "unit": "µM"}, {"measurement": "MIC", "setting": "Staphylococcus aureus", "value": "> 125", "unit": "µM"}]}, {"smiles": "COc1c(N2C[C@@H]3CCCN[C@@H]3C2)c(F)cc2c(=O)c(C(=O)O)cn(C3CC3)c12", "note": "[MOXIFLOXACIN]", "values": [{"measurement": "MIC", "setting": "[1]", "value": 0.17, "unit": "µM"}, {"measurement": "MIC50", "setting": "[3]", "value": 0.041, "unit": "µM"}, {"measurement": "MIC99", "setting": "[3]", "value": 0.07, "unit": "µM"}, {"measurement": "MIC50", "setting": "[4]", "value": 0.12, "unit": "µM"}, {"measurement": "MIC99", "setting": "[4]", "value": 0.19, "unit": "µM"}]}, {"smiles": "C[C@@H]1CN2c3c(cc4c(N5CC[C@H](O)C5)noc4c3F)CC3(C(=O)NC(=O)NC3=O)[C@H]2[C@H](C)O1", "values": [{"measurement": "MIC", "setting": "[1]", "value": 5.9, "unit": "µM"}, {"measurement": "pIC50", "setting": "[2]", "value": 4.70}, {"measurement": "MIC", "setting": "Escherichia coli", "value": "> 125", "unit": "µM"}, {"measurement": "MIC", "setting": "Staphylococcus aureus", "value": 64, "unit": "µM"}, {"measurement": "MIC50", "setting": "[3]", "value": 0.92, "unit": "µM"}, {"measurement": "MIC99", "setting": "[3]", "value": 2.4, "unit": "µM"}, {"measurement": "MIC50", "setting": "[4]", "value": 3.3, "unit": "µM"}, {"measurement": "MIC99", "setting": "[4]", "value": 5.9, "unit": "µM"}, {"measurement": "pIC50", "setting": "DNA gyrase", "value": 5.16}]}, {"smiles": "Cc1nnc(-c2noc3c(F)c4c(cc23)CC2(C(=O)NC(=O)NC2=O)[C@H]2[C@H](C)O[C@H](C)CN42)o1", "values": [{"measurement": "MIC", "setting": "[1]", "value": 0.45, "unit": "µM"}, {"measurement": "MIC", "setting": "Escherichia coli", "value": 31, "unit": "µM"}]}, {"smiles": "C[C@@H]1CN2c3c(cc4c(N5C[C@H](O)[C@@H](O)C5)noc4c3F)CC3(C(=O)NC(=O)NC3=O)[C@H]2[C@H](C)O1", "values": [{"measurement": "MIC", "setting": "[1]", "value": 31, "unit": "µM"}, {"measurement": "MIC", "setting": "Escherichia coli", "value": "> 125", "unit": "µM"}]}, {"smiles": "C[C@@H]1CN2c3c(cc4c(OC[C@@H]5CCC(=O)O5)noc4c3F)CC3(C(=O)NC(=O)NC3=O)[C@H]2[C@H](C)O1", "values": [{"measurement": "MIC", "setting": "[1]", "value": 2, "unit": "µM"}, {"measurement": "MIC", "setting": "Escherichia coli", "value": "> 125", "unit": "µM"}, {"measurement": "MIC", "setting": "Staphylococcus aureus", "value": 3.9, "unit": "µM"}]}, {"smiles": "Cc1nnc(COc2noc3c(F)c4c(cc23)CC2(C(=O)NC(=O)NC2=O)[C@H]2[C@H](C)O[C@H](C)CN42)o1", "values": [{"measurement": "MIC", "setting": "[1]", "value": 63, "unit": "µM"}, {"measurement": "MIC", "setting": "Escherichia coli", "value": "> 125", "unit": "µM"}, {"measurement": "MIC", "setting": "Staphylococcus aureus", "value": "> 125", "unit": "µM"}]}]}
